Molecules are shown by their SMILES.

This is an account of results in ChEMBL document CHEMBL5370605, “Discovery of Novel Fedratinib-Based HDAC/JAK/BRD4 Triple Inhibitors with Remarkable Antitumor Activity against Triple Negative Breast Cancer” (J Med Chem, 2023).

Data set [1] in a line: Cmax in ICR (CD-1) mouse at 50 mg/kg, ip measured for 24 hrs by LC-MS/MS analysis. The class given is ADME, organism-based. Details: time 24 hrs, dose 50 mg/kg, route ip. Conditions: in vivo.
A short description of data set [2]: Half life in ICR (CD-1) mouse at 10 mg/kg, iv measured for 24 hrs by LC-MS/MS analysis. The class given is ADME, organism-based. Conditions: in vivo.
Data set [3] is described as follows: Volume of distribution at steady state in ICR (CD-1) mouse at 10 mg/kg, iv measured for 24 hrs by LC-MS/MS analysis. The class given is ADME, organism-based. Conditions: in vivo.
Data set [4] is described as follows: Cmax in ICR (CD-1) mouse at 10 mg/kg, iv measured for 24 hrs by LC-MS/MS analysis. The format is ADME, organism-based. Details: time 24 hrs, dose 10 mg/kg, route iv. Conditions: in vivo.
A short description of data set [5]: Tmax in ICR (CD-1) mouse at 50 mg/kg, ip measured for 24 hrs by LC-MS/MS analysis. The class given is ADME, organism-based. Conditions: in vivo.
Data set [6] in a line: MRT (0 to t) in ICR (CD-1) mouse at 50 mg/kg, ip measured for 24 hrs by LC-MS/MS analysis. The format is ADME, organism-based. Conditions: in vivo.
Data set [7] in a line: MRT (0 to t) in ICR (CD-1) mouse at 10 mg/kg, iv measured for 24 hrs by LC-MS/MS analysis. The class given is ADME, organism-based. Conditions: in vivo.
A short description of data set [8]: Half life in ICR (CD-1) mouse at 50 mg/kg, ip measured for 24 hrs by LC-MS/MS analysis. The class given is ADME, organism-based. Conditions: in vivo.
Data set [9] can be described thus: Bioavailability in ICR (CD-1) mouse at 50 mg/kg, ip measured for 24 hrs by LC-MS/MS analysis. The class given is ADME, organism-based. Conditions: ICR (CD-1), in vivo.
The nature of data set [10]: AUC (0 to t) in ICR (CD-1) mouse at 10 mg/kg, iv measured for 24 hrs by LC-MS/MS analysis. Conditions: in vivo. The format is ADME, organism-based. On the set-up: dose 10 mg/kg, time 24 hrs, route iv.
Data set [11] can be described thus: AUC (0 to t) in ICR (CD-1) mouse at 50 mg/kg, ip measured for 24 hrs by LC-MS/MS analysis. The class given is ADME, organism-based. On the set-up: dose 50 mg/kg, time 24 hrs, route ip. Conditions: in vivo.
Data set [12] can be described thus: Selectivity index, ratio of IC50 for human GES-1 cells to IC50 for human MDA-MB-231 cells.
Data set [13] deals with MDA-MB-231. Put plainly: cells. Conditions: Homo sapiens, MDA-MB-231, 48 h.
Data set [14] is described as follows: in vitro. Conditions: human, GES1 cells.
The target of data set [15] is Bromodomain-containing protein 4 (Homo sapiens, UniProt O60885). Put plainly: Inhibition of recombinant BRD4 BD1 (unknown origin) using H4KAc as substrate incubated for 30 mins by HTRF analysis.
In data set [16] the target is Tyrosine-protein kinase JAK1 (Homo sapiens, UniProt P23458). Put plainly: Inhibition of JAK1 (unknown origin) incubated for 40 mins in presence of ATP by Kinase-glo luminescent assay.
Chain of Tyrosine-protein kinase JAK1 (P23458 whole entry): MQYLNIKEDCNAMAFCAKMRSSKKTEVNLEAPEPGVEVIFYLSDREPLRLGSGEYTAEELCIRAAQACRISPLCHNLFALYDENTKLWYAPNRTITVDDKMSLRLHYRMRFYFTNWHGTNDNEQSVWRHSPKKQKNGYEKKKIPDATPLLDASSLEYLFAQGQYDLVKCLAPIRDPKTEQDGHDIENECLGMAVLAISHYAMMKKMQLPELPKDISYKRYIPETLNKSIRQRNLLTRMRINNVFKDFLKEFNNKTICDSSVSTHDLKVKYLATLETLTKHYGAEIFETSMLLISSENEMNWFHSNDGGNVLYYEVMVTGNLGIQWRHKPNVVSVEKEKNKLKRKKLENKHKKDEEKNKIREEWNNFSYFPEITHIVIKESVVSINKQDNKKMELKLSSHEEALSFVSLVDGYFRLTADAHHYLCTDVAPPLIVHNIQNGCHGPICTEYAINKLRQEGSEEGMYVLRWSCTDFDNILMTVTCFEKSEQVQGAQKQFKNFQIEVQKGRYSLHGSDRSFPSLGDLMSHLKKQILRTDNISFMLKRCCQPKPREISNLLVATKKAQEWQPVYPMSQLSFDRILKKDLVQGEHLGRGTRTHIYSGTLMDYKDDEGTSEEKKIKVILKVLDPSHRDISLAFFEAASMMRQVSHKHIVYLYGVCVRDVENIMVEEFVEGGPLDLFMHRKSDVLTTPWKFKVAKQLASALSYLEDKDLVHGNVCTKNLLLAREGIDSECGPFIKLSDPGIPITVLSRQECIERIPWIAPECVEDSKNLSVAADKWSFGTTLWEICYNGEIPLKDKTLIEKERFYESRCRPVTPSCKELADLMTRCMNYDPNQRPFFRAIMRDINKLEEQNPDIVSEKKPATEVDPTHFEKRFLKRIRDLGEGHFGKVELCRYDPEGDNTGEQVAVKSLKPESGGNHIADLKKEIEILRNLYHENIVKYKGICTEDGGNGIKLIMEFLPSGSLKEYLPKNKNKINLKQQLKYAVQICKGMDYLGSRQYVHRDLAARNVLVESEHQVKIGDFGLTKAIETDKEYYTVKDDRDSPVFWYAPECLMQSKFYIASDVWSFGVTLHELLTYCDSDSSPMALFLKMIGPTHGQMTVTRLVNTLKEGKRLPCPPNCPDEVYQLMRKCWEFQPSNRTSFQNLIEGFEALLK
The target in data set [17] is Histone deacetylase 1 (Homo sapiens, UniProt Q13547). Briefly: Inhibition of HDAC1 (unknown origin) using Boc-Lys(Ac)-AMC as substrate incubated for 30 mins by fluorescence based analysis.
Chain of Histone deacetylase 1 (Q13547 whole entry): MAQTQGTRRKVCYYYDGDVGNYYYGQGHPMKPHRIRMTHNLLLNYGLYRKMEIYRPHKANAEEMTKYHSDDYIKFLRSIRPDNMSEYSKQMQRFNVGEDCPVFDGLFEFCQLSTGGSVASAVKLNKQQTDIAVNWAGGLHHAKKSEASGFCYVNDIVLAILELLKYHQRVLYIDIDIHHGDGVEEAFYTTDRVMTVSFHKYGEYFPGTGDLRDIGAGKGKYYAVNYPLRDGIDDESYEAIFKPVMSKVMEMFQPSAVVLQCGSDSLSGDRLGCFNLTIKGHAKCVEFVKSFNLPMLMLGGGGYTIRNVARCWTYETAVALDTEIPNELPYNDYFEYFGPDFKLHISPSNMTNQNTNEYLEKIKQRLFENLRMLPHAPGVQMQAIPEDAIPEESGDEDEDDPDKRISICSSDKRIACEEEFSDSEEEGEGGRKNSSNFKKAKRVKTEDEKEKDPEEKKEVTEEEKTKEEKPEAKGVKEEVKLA
Data set [18] can be described thus: Cytotoxicity against human GES1 cells assessed as inhibition of cell growth incubated for 48 hrs in presence of SAHA by MTT assay. The format is toxicity, cell-based.
A short description of data set [19]: In vivo inhibition of JAK1 in athymic BALB/c nude mouse xenografted with human MDA-MB-231 cells assessed as fold change in STAT3 level in tumor at 25 mg/kg, ip administered for 28 consecutive days by Western blot analysis (reference value: 1). The format is functional. Conditions: time 28 day.
Data set [20] can be described thus: In vivo inhibition of BRD4 in athymic BALB/c nude mouse xenografted with human MDA-MB-231 cells assessed as fold change in c-Myc level in tumor at 25 mg/kg, ip administered for 28 consecutive days by Western blot analysis (reference value: 1). Conditions: time 28 day. The class given is functional.
For data set [21], the system named is MDA-MB-231. Put plainly: Antitumor activity against human MDA-MB-231 cells xenografted in athymic BALB/c nude mouse assessed as the tumor growth inhibition at 25 mg/kg/day, ip administered for 28 days and measured every 3 days by vernier caliper analysis relative to control. The class given is functional. Conditions: MDA-MB-231, 672 h, time 28 day, read-out: TGI.

Data set [22] can be described thus: Toxicity in athymic BALB/c nude mouse xenografted with human MDA-MB-231 cells assessed as reduction in body weight at 25 mg/kg/day, ip administered for 28 consecutive days. The class given is organism-based. Conditions: in vivo, 672 h, time 28 day.
A short description of data set [23]: In vivo inhibition of JAK1 in athymic BALB/c nude mouse xenografted with human MDA-MB-231 cells assessed as fold change in phosphorylated STAT3 level at Tyr705 residue in tumor at 25 mg/kg, ip administered for 28 consecutive days by Western blot analysis (reference value: 1). The format is functional. Conditions: time 28 day.
In data set [24] the test system is GES1. Briefly: Cytotoxicity against human GES1 cells at 1 uM incubated for 48 hrs by MTT assay. The format is toxicity, cell-based. Conditions: ges1, 48 h.
Data set [25] is described as follows: In vivo inhibition of HDAC1 in athymic BALB/c nude mouse xenografted with human MDA-MB-231 cells assessed as fold change in acetyl-histone H3 level in tumor at 25 mg/kg, ip administered for 28 consecutive days by Western blot analysis (reference value: 1). The format is functional. Conditions: time 28 day.
The nature of data set [26]: Toxicity in athymic BALB/c nude mouse xenografted with human MDA-MB-231 cells assessed as reduction in body weight at 50 mg/kg/day, ip administered for 2 days. The format is organism-based. Conditions: in vivo, 48 h, time 2 day.
A short description of data set [27]: Metabolic stability in mouse liver microsomes assessed as intrinsic clearance in presence of NADPH by LC-MS/MS analysis. Conditions: read-out: CLH. The class given is ADME, Microsome.
Data set [28] can be described thus: Metabolic stability in mouse liver microsomes assessed as half life in presence of NADPH by LC-MS/MS analysis. The class given is ADME, Microsome.
The subject of data set [29] is MDA-MB-231. Put plainly: Antiproliferative activity against human MDA-MB-231 cells assessed as inhibition of cell growth incubated for 48 hrs in presence of SAHA by MTT assay. The class given is functional, cell-based. Conditions: MDA-MB-231, 48 h.

For the molecule `O=C(CCCCCCC(=O)Nc1ccccc1)NO` [VORINOSTAT], the Cmax is 3930 ng/mL in [1] and 6640 ng/mL in data set [4]. This molecule yielded a t1/2 in [2] of 17.4 min. The same molecule registered a Vdss in [3] of 1.59 L/kg. Besides, in data set [5], the Tmax was 4.8 min. Moreover, in data set [6], the MRT last at 24 h is 40.2 min. In data set [7], the “MRT(t)” value was 7.2 min. The same molecule gave a half-life in data set [8] of 81 min. The bioavailability in data set [9] amounted to 65%. The AUCt in [10] amounted to 783 ng·h/mL. Moreover, the AUC(0-t) at 24 h in data set [11] came to 2550 ng·h/mL.

For the molecule `Cc1cnc(Nc2ccc(N3CCN(C)CC3)c(F)c2)nc1Nc1ccc(C(=O)Nc2ccccc2N)cc1`, in data set [12], the selectivity ratio came out at 4.4. In addition, the IC50 was 2200 nM in data set [13], 1810 nM in data set [15], 5.9 nM in data set [16] and over 5000 nM in data set [17]. In [14], this molecule showed an IC50 at 48 h of 9700 nM.

For `Cc1cnc(Nc2ccc(OCCN3CCCC3)cc2)nc1Nc1cccc(S(=O)(=O)NC(C)(C)C)c1` [FEDRATINIB], the figures for the Cmax in [1] and in [4] were 9750 ng/mL and 4430 ng/mL, respectively. In addition, the IC50 at 48 h in data set [18] is 610 nM; in [14], 890 nM. Also, the “fold change (FC)” value worked out at 1.3 in data set [19], 1.1 in data set [20], 0.5 in data set [23] and 0.8 in [25]. Further, the inhibition in vivo at 25 mg/kg/day in [21] amounted to 32%. In addition, the t1/2 in data set [2] came to 327 min. Besides, the Vdss in data set [3] was 8.74 L/kg. Further, the figures for the Activity result in data set [22], in data set [24] and in data set [26] were “Non-Toxic”, “Toxic” and “Toxic”, respectively. Moreover, the concentration for half-maximal inhibition (IC50) was found to be 1400 nM in data set [13] and 460 nM in data set [29]. For the same molecule, in data set [5], the Tmax came to 4.8 min. In data set [6], this molecule came in with an MRT last at 24 h of 140 min. For the same molecule, the CLint scaled in data set [27] is 976 mL/min/kg. For the same molecule, the “MRT(t)” value in data set [7] is 113 min. The figures for the half-life in data set [8] and in data set [28] were 173 min and 5.6 min, respectively. The bioavailability in [9] amounted to 102%. In addition, the AUCt in data set [10] was found to be 2825 ng·h/mL. Moreover, the AUC(0-t) at 24 h in data set [11] amounted to 14500 ng·h/mL.

Take `Cc1cnc(Nc2ccc(/C=C/C(=O)NO)cc2)nc1Nc1ccc(Cl)c(NS(=O)(=O)C(C)(C)C)c1`: the selectivity ratio in data set [12] turned out to be 7.1. Also, the IC50 amounted to 3400 nM in data set [13], 1290 nM in [15], 14.6 nM in data set [16] and 380 nM in data set [17]. The midpoint of inhibition in data set [14], the IC50 at 48 h, lay at 28600 nM.

As for `CCCN(N)C(=O)c1ccc(Nc2nc(Nc3ccc(N4CCN(C)CC4)c(F)c3)ncc2C)cc1`, the selectivity ratio in data set [12] was 2.5. Further, the IC50 was 4500 nM in data set [13], 2360 nM in [15], 10.4 nM in data set [16] and over 5000 nM in data set [17]. In data set [14], this molecule displayed an IC50 at 48 h of 11500 nM.
